Source: patent US10189826B2, “Heterocyclic compounds and methods of use” (Medivation Technologies LLC, priority 2015, dated 2019)
Read-outs that look alike come from different tables or passages of the source.

Columns and labels:
Type in all cases: cell-based
[1] = test system: SREBP-2 transcriptional activity (SREBP2 cleavage) in HepG2_LSSprom cells; experiment: Luciferase reporter driven by a SREBP-2 specific promoter in HepG2_LSSprom cells; conditions: HepG2_LSSprom cells; for IC50: 24 h treatment, read-out: SREBP2 Cleavage (IC50 μM) 24 h; for SREBP2 Cleavage (5 μM) (% Inh): medium without FBS
How it was run: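 HepG2_LSSprom cells dosed at 0.625-10 μM in serum-free medium for 6 h (or 24 h), then luciferase luminescence read. Signal normalized to vehicle (100%); IC50 by four-parameter nonlinear fit; five independent experiments, triplicate wells.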

HepG2_LSSprom cells = experiment: Cytotoxicity assay (LDH release) in HepG2_LSSprom cells; conditions: for Cytotoxicity (5 μM) %: LDH release relative to lysis control
How it was run: (§1)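 HepG2_LSSprom cells exposed to compound at 0.625–10 μM in serum-free medium for 6 h or 24 h. Medium LDH measured colorimetrically at 490 nm; release expressed as % of lysis control after vehicle subtraction, negatives set to 0; five independent experiments, triplicate wells, mean±SEM.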

[2] = test system: SREBP2 cleavage in HEPG2 cells; experiment: SREBP2 cleavage in HEPG2 cells (Western blot normalized to actin); conditions: 20 μM, 1 day, DMEM without FBS
Description: Average SREBP2 cleavage in HEPG2 cells was measured in the presence of compounds disclosed in Table 1. HepG2 cells were seeded at 500,000 cells per well in 6-well plates in DMEM supplemented with 10% FBS. After 2 days, cells were treated with compounds (20 μM) for 1 day in DMEM without FBS. Western blots were normalized with respect to actin.

HepG2 cells = experiment: Cell viability in HepG2 cells (MTS); conditions: 20 μM, 3 days, DMEM without FBS
Description: For viability measurements, HepG2 cells were seeded at 5,000 cells per well in 96-well plates in DMEM supplemented with 10% FBS. After 1 day in culture, cells were treated with compounds (20 μM) for 3 days in DMEM without FBS. Viability was measured by MTS. Treatment with compounds was carried out in medium without FBS, and viability was measured by MTS.

[3] = Cytotoxicity assay (LDH release) in HepG2_LSSprom cells; conditions: human, HepG2 LSSprom cells, 24 h treatment, LDH release
How it was run: as §1

Row | IC50 ([1]; 24 h) | Structure (SMILES) | IC50 at 24 h [3] | also measured
1 |  | CC1(N)CCCN(C(=O)c2ccc(-c3cc(-c4ccnc(C(C)(C)C)c4)cs3)c(Cl)c2)C1 (single isomer, unassigned) [Compound 95b] |  | IC50 [1]: 0.65 µM; IC50 (HepG2_LSSprom cells; 24 h treatment, LDH release): > 10 µM
2 |  | CN(C)C(=O)c1ccc(-c2csc(-c3cccc4[nH]ccc34)n2)c(Cl)c1 [Compound 6, 3-chloro-4-[2-(1H-indol-4-yl)-1,3-thiazol-4-yl]-N,N-dimethylbenzamide] |  | SREBP2 Cleavage (5 μM) (% Inh) [1]: 41 % Inh; Cytotoxicity (5 μM) % (HepG2_LSSprom cells): 0%
3 |  | O=C(c1ccc(-c2csc(-c3cccc4[nH]ccc34)n2)c(Cl)c1)N1CCCCC1 [Compound 4, [3-chloro-4-[2-(1H-indol-4-yl)thiazol-4-yl]phenyl]-(1-piperidyl)methanone] |  | SREBP2 Cleavage (5 μM) (% Inh) [1]: 48 % Inh; Cytotoxicity (5 μM) % (HepG2_LSSprom cells): 1%
4 |  | CC(C)(C)c1cc(-c2nc(-c3ccc(C(=O)N4CCCCC4)cc3Cl)cs2)ccn1 [Compound 5, 2-tert-butyl-4-{4-[2-chloro-4-(piperidine-1-carbonyl)phenyl]-1,3-thiazol-2-yl}pyridine] |  | SREBP2 Cleavage (5 μM) (% Inh) [1]: 71 % Inh; Cytotoxicity (5 μM) % (HepG2_LSSprom cells): 4%
5 |  | CN(C)C(=O)c1ccc(-c2csc(-c3ccnc(N4CCCCC4)c3)n2)c(Cl)c1 [Compound 9, 3-chloro-N,N-dimethyl-4-{2-[2-(piperidin-1-yl)pyridin-4-yl]-1,3-thiazol-4-yl}benzamide] |  | SREBP2 Cleavage (5 μM) (% Inh) [1]: 52 % Inh; Cytotoxicity (5 μM) % (HepG2_LSSprom cells): 1%
6 |  | CCCc1cc(-c2nc(-c3ccc(C(=O)N(C)C)cc3)cs2)ccn1 [Compound 2, N,N-dimethyl-4-[2-(2-propylpyridin-4-yl)-1,3-thiazol-4-yl]benzamide] |  | Average SREBP2 cleavage (% Inhibition, n = 3) [2]: 73.85 % Inhibition; Average Viability (% Inhibition, n = 3) (HepG2 cells): 30.73 % Inhibition
7 |  | CCCc1cc(-c2nc(-c3ccc(C(N)=O)cc3)cs2)ccn1 [Compound 3, 4-[2-(2-propylpyridin-4-yl)-1,3-thiazol-4-yl]benzamide] |  | Average SREBP2 cleavage (% Inhibition, n = 3) [2]: 12.18 % Inhibition; Average Viability (% Inhibition, n = 3) (HepG2 cells): 19.52 % Inhibition
8 | 0.74 µM | CC1(O)CCN(C(=O)c2ccc(-c3cc(-c4ccnc(C(C)(C)C)c4)cs3)c(Cl)c2)CC1 [Compound 100, 1-{4-[4-(2-tert-butylpyridin-4-yl)thiophen-2-yl]-3-chlorobenzoyl}-4-methylpiperidin-4-ol] | > 10 µM | 
9 | 0.037 µM | CC(C)(C)c1cc(-c2csc(-c3ccc(C(=O)N4CCCC(O)C4)cc3Cl)c2)ccn1 (centres unmarked) [Compound 89, 1-{4-[4-(2-tert-butylpyridin-4-yl)thiophen-2-yl]-3-chlorobenzoyl}piperidin-3-ol] | > 10 µM | 
10 | 0.81 µM | Cc1sc(-c2ccnc(C(C)(C)C)c2)cc1-c1ccc(C(=O)N2CCCCC2)cc1Cl [Compound 16, 2-tert-butyl-4-{4-[2-chloro-4-(piperidine-1-carbonyl)phenyl]-5-methylthiophen-2-yl}pyridine] | > 3 µM | 
11 | > 10 µM | Cc1sc(-c2ccnc(C(C)(C)C)c2)cc1-c1ccc(C(=O)N2CCCC(N)C2)cc1Cl (centres unmarked) [Compound 66, 1-{4-[5-(2-tert-butylpyridin-4-yl)-2-methylthiophen-3-yl]-3-chlorobenzoyl}piperidin-3-amine] | > 10 µM | 
12 | 0.025 µM | CC(C)(C)c1cc(-c2csc(-c3ccc(C(=O)N4CCC[C@](C)(O)C4)cc3Cl)c2)ccn1 [Compound 101b, (3S)-1-{4-[4-(2-tert-butylpyridin-4-yl)thiophen-2-yl]-3-chlorobenzoyl}-3-methylpiperidin-3-ol] | > 10 µM | 
13 | 0.82 µM | CC(C)(C)c1cc(-c2cc(-c3ccc(C(=O)N4CCOCC4)cc3Cl)cs2)ccn1 [Compound 22, 4-{4-[5-(2-tert-butylpyridin-4-yl)thiophen-3-yl]-3-chlorobenzoyl}morpholine] | > 3 µM | 
14 | 0.71 µM | CC(C)(C)c1cc(-c2cc(-c3ccc(C(=O)N4CCC[C@@H](N)C4)cc3Cl)cs2)ccn1 [Compound 21a, (R)-(3-aminopiperidin-1-yl)(4-(5-(2-(tert-butyl)pyridin-4-yl)thiophen-3-yl)-3-chlorophenyl)methanone] | > 10 µM | 
15 | 0.06 µM | CC(C)(C)c1cc(-c2csc(-c3ccc(C(=O)N4CCC(O)CC4)cc3Cl)c2)ccn1 [Compound 86, 1-{4-[4-(2-tert-butylpyridin-4-yl)thiophen-2-yl]-3-chlorobenzoyl}piperidin-4-ol] | > 10 µM | 
16 | > 1 µM | CC(C)(C)c1cc(-c2cc(-c3ccc(C(=O)N4CCNC(=O)C4)cc3Cl)cs2)ccn1 [Compound 7, 4-{4-[5-(2-tert-butylpyridin-4-yl)thiophen-3-yl]-3-chlorobenzoyl}piperazin-2-one] | > 3 µM | 
17 | 0.25 µM | CC(C)(C)OC(=O)NC1CCCN(C(=O)c2ccc(-c3csc(-c4ccnc(C(C)(C)C)c4)c3)c(Cl)c2)C1 (racemic) [Compound 19, tert-butyl N-(1-{4-[5-(2-tert-butylpyridin-4-yl)thiophen-3-yl]-3-chlorobenzoyl}piperidin-3-yl)carbamate] | > 3 µM | 
18 | 0.14 µM | CC(C)(C)c1cc(-c2cc(-c3ccc(C(=O)N4CCCC(NCc5cccc(Cl)c5)C4)cc3Cl)cs2)ccn1 (centres unmarked) [Compound 81, 1-{4-[5-(2-tert-butylpyridin-4-yl)thiophen-3-yl]-3-chlorobenzoyl}-N-[(3-chlorophenyl)methyl]piperidin-3-amine] | > 10 µM | 
19 | 0.5 µM | CC(C)(C)c1cc(-c2cc(-c3ccc(C(=O)N4CCC(O)C4)cc3Cl)cs2)ccn1 (centres unmarked) [Compound 82, [4-[5-(2-tert-butyl-4-pyridyl)-3-thienyl]-3-chloro-phenyl]-(3-hydroxypyrrolidin-1-yl)methanone] | > 10 µM | 
